Values quoted from earlier work as cited in US10716758B2, “Liposomal statin formulation” (Southwest Research Institute, priority 2018, dated 2020).

What was measured:
[1] = tested on: scar, rabbit ear model; conditions: relatively low doses (40 μM)
[2] = 20° C. to 25° C.

Structure (SMILES) | scar elevation index vs control [1] | solubility in water (in words) [2]
CC[C@H](C)C(=O)O[C@H]1C[C@@H](C)C=C2C=C[C@H](C)[C@H](CC[C@@H]3C[C@@H](O)CC(=O)O3)[C@H]21 [lovastatin] | reduction in the scar elevation index | 
CC[C@H](C)C(=O)O[C@H]1C[C@H](O)C=C2C=C[C@H](C)[C@H](CC[C@@H](O)C[C@@H](O)CC(=O)O)[C@H]21 [pravastatin] |  | soluble in water
